Drawing on ChEMBL document CHEMBL3879911, “Heteroaryl compounds useful as inhibitors of E1 activating enzymes” (2008), this text covers IC50 for 61 compounds.

Each structure is given as a SMILES string.

For this test, the target named is T1, NEDD8 activating enzyme (Homo sapiens, UniProt Q8TBC4).
T1 sequence (Q8TBC4 whole entry): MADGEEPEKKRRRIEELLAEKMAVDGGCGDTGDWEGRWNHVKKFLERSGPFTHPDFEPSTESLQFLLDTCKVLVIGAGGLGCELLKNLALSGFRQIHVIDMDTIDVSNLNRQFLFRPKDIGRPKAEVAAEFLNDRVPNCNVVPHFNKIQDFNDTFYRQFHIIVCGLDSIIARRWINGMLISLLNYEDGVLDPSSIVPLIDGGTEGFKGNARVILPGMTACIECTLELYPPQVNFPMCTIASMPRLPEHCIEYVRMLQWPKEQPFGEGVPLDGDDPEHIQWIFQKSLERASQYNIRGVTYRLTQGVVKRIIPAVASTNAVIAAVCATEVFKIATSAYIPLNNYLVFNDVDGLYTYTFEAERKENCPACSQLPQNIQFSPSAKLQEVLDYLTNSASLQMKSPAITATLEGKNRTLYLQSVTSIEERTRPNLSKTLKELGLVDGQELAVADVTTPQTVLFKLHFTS
T1 sequence (Q13564 whole entry): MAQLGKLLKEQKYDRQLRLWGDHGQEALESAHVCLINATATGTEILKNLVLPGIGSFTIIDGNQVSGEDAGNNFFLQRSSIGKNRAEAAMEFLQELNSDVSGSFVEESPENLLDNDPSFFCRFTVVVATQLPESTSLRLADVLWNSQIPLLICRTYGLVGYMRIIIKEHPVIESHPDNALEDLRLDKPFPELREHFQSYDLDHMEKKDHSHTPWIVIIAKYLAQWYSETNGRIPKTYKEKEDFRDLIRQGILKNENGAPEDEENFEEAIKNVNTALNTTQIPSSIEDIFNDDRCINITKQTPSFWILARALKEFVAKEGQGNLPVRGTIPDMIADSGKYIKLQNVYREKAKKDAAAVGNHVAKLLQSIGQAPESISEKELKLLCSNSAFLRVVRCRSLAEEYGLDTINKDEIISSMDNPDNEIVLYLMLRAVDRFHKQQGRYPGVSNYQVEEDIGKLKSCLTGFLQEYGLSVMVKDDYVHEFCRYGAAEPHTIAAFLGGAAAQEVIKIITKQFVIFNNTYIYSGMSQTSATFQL
The experiment in a line: Inhibition of recombinant human NAEalpha/N-terminal His-tagged NAEbeta expressed in baculovirus infected insect Sf9 cells using N-terminal FLAG tagged Nedd8 as substrate incubated for 105 mins in presence of N-terminal GST-tagged Ubc12 by FRET assay.
One may read the IC50 as the concentration needed to halve the response being measured. `NS(=O)(=O)OC[C@H]1C[C@@H](Nc2cc(C#Cc3ccccc3)ncn2)[C@H](O)[C@@H]1O`: the IC50 is at most 500 nM. Next, `NS(=O)(=O)OC[C@H]1CC[C@H](Oc2ncnc3[nH]c(-c4cccc5ccccc45)nc23)C1`: 500 to 10000 nM.

On to `NS(=O)(=O)OC[C@@H]1C[C@@H](Nc2ncnc3[nH]c(-c4ccccc4)nc23)C[C@@H]1O`, for which the IC50 was at most 500 nM. With `NS(=O)(=O)OC[C@H]1C[C@@H](Nc2cc(NCc3ccccc3)ncn2)[C@H](O)[C@@H]1O`, the IC50 is at most 500 nM.

In the case of `CC1(C)C[C@H](Nc2nccc(N[C@@H]3C[C@H](COS(N)(=O)=O)[C@@H](O)[C@H]3O)n2)c2ccccc21`, the IC50 was at most 500 nM. For the compound `Cc1cccc(Sc2nc3ncnc(O[C@@H]4C[C@@H](COS(N)(=O)=O)[C@@H](O)C4)c3[nH]2)c1`, the IC50 is at most 500 nM.

Consider `NS(=O)(=O)OC[C@@H]1C[C@@H](Nc2ncnc3[nH]c(-c4ccccc4Cl)nc23)C[C@@H]1O`, for which the IC50 is at most 500 nM.

`NS(=O)(=O)OC[C@H]1C[C@@H](NC(=O)c2cccnc2)[C@H](O)[C@@H]1O`: the IC50 was 500 to 10000 nM.

On to `NS(=O)(=O)OC[C@@H]1C[C@@H](Oc2ccnc3[nH]c(-c4cccc5ccccc45)nc23)C[C@@H]1O`, for which the IC50 was at most 500 nM.

Take `NS(=O)(=O)OCC1C[C@@H](Nc2ncnc3[nH]c(C4CCCc5ccccc54)nc23)C[C@@H]1O` (single isomer, unassigned): the IC50 was at most 500 nM.

With `NS(=O)(=O)OC[C@@H]1C[C@@H](Nc2ncnc3[nH]c(C4CCCCC4)nc23)C[C@@H]1O`, the IC50 was at most 500 nM. With `NS(=O)(=O)OC[C@H]1C[C@@H](Nc2cc(N[C@H]3CCCc4ccccc43)ncn2)[C@H](O)[C@@H]1O` the figure was at most 500 nM; with `NS(=O)(=O)OC[C@@H]1C[C@@H](Oc2cc(OCc3ccc4ccccc4c3)ncn2)C[C@@H]1O`, 500 to 10000 nM. For `Cc1c(N[C@H]2CCc3ccccc32)ncnc1O[C@@H]1C[C@@H](COS(N)(=O)=O)[C@@H](O)C1`, the IC50 is above 10000 nM. Next, `NS(=O)(=O)OC[C@H]1C[C@@H](Nc2cc(N[C@@H]3CCC[C@H]3OCc3ccccc3)ncn2)[C@H](O)[C@@H]1O`: above 10000 nM.

For `NS(=O)(=O)OC[C@@H]1C[C@@H](Oc2cc(Cc3ccccc3)ncn2)C[C@@H]1O`, the IC50 lay within 500 to 10000 nM. For `CO[C@@H]1CCc2ccccc2[C@@H]1Nc1cc(O[C@@H]2C[C@@H](COS(N)(=O)=O)[C@@H](O)C2)ncn1`, the IC50 is at most 500 nM. With `NS(=O)(=O)OC[C@H]1C[C@@H](Nc2cc(N[C@H]3CCc4c(F)cccc43)ncn2)[C@H](O)[C@@H]1O` the figure was at most 500 nM; with `CO[C@H]1Cc2ccccc2[C@H]1Nc1ncnc(O[C@@H]2C[C@@H](COS(N)(=O)=O)[C@@H](O)C2)c1F`, at most 500 nM; with `NS(=O)(=O)OC[C@@H]1C[C@@H](Nc2ncnc3oc(-c4ccccc4)nc23)C[C@@H]1O`, at most 500 nM. Next, `NS(=O)(=O)OC[C@@H]1C[C@@H](Oc2ncnc3nc(-c4cncc5ccccc45)[nH]c23)C[C@@H]1O`: at most 500 nM; `CN(C)C[C@H]1Cc2ccccc2[C@H]1Nc1cc(O[C@@H]2C[C@@H](COS(N)(=O)=O)[C@@H](O)C2)ncn1`: 500 to 10000 nM; `CO[C@H]1Cc2ccccc2[C@H]1Nc1cc(O[C@@H]2C[C@@H](COS(N)(=O)=O)[C@@H](O)C2)ncn1`: at most 500 nM.

Regarding `NS(=O)(=O)OC[C@H]1C[C@@H](Nc2ccnc(NCc3ccccc3)n2)[C@H](O)[C@@H]1O`, the IC50 is 500 to 10000 nM. In the case of `CC(C)(C)c1nc2c(N[C@@H]3C[C@@H](COS(N)(=O)=O)[C@@H](O)C3)ncnc2[nH]1`, the IC50 is at most 500 nM. Next, `NS(=O)(=O)OC[C@@H]1C[C@@H](Oc2ncnc3c2ncn3Cc2ccccc2)C[C@@H]1O`: 500 to 10000 nM; `NS(=O)(=O)OC[C@@H]1C[C@@H](Nc2ncnc3[nH]c(-c4ccc(Cl)cc4)nc23)C[C@@H]1O`: at most 500 nM. With `Cn1c(-c2ccccc2)nc2c(N[C@@H]3C[C@@H](COS(N)(=O)=O)[C@@H](O)C3)ncnc21` the figure was at most 500 nM; with `NS(=O)(=O)OC[C@@H]1C[C@@H](Nc2ncnc3[nH]c(-c4cccc5ccccc45)nc23)C[C@@H]1O`, at most 500 nM; with `NS(=O)(=O)OC[C@H]1C[C@@H](Nc2cc(N[C@H]3CCc4cc(Cl)ccc43)ncn2)[C@H](O)[C@@H]1O`, at most 500 nM. Next, `CO[C@H]1Cc2ccccc2[C@H]1Nc1cc(N[C@@H]2C[C@@H](COS(N)(=O)=O)[C@@H](O)C2)ncn1`: at most 500 nM; `CN(c1ncnc2c1nc(-c1ccccc1)n2C)[C@@H]1C[C@@H](COS(N)(=O)=O)[C@@H](O)C1`: 500 to 10000 nM; `NS(=O)(=O)OC[C@@H]1C[C@@H](Nc2ncnc3[nH]c(-c4cccc5c4OCCO5)nc23)C[C@@H]1O`: at most 500 nM. For `NS(=O)(=O)OC[C@H]1C[C@@H](Nc2cc(N[C@H]3CCc4ccccc43)ncn2)C[C@@H]1O`, the IC50 was at most 500 nM. Turning to `NS(=O)(=O)OC[C@@H]1C[C@@H](Oc2ncnc3nc(-c4ccnc5cc(Cl)ccc45)[nH]c23)C[C@@H]1O`, the IC50 was at most 500 nM.

Turning to `NS(=O)(=O)OC[C@H]1C[C@@H](O)[C@H](Nc2cc(N[C@H]3CCc4ccccc43)ncn2)C1`, the IC50 is above 10000 nM. On to `NS(=O)(=O)OC[C@@H]1C[C@@H](Oc2cc(NC3CCCC3)ncn2)C[C@@H]1O`, for which the IC50 is 500 to 10000 nM. As for `NS(=O)(=O)OC[C@@H]1C[C@@H](Oc2ncnc3nc(-c4ccc(N5CCCC5)c5ccccc45)[nH]c23)C[C@@H]1O`, the IC50 was at most 500 nM.

Regarding `NS(=O)(=O)OC[C@H]1C[C@@H](Nc2cc(N[C@H]3CCC[C@@H]3OCc3ccccc3)ncn2)[C@H](O)[C@@H]1O`, the IC50 fell in the range of 500 to 10000 nM. Next, `NS(=O)(=O)OC[C@H]1C[C@@H](Nc2cc(CCc3ccccc3)ncn2)[C@H](O)[C@@H]1O`: 500 to 10000 nM. Next, `NS(=O)(=O)OC[C@@H]1C[C@@H](Oc2ncnc3[nH]c(-c4ccccc4)nc23)C[C@@H]1O`: at most 500 nM. For the compound `COc1cccc(-c2nc3c(N[C@@H]4C[C@@H](COS(N)(=O)=O)[C@@H](O)C4)ncnc3[nH]2)c1`, the IC50 is at most 500 nM. Regarding `CN(c1ncnc2[nH]c(-c3cccc4ccccc34)nc12)[C@@H]1C[C@@H](COS(N)(=O)=O)[C@@H](O)C1`, the IC50 is at most 500 nM.

For `Cc1nc(N)cc(N[C@@H]2C[C@H](COS(N)(=O)=O)[C@@H](O)[C@H]2O)n1`, the IC50 is above 10000 nM. For `NS(=O)(=O)OC[C@H]1C[C@@H](Nc2cc(N[C@H]3CCc4ccccc43)ncn2)[C@H](O)[C@@H]1O`, the IC50 is at most 500 nM. Next, `NS(=O)(=O)OC[C@@H]1C[C@@H](Oc2cc(N3CCc4ccccc4C3)ncn2)C[C@@H]1O`: above 10000 nM; `OC[C@@H]1C[C@@H](Nc2ncnc3[nH]c(-c4cccc5c4CCCC5)nc23)C[C@@H]1O`: 500 to 10000 nM; `NS(=O)(=O)OC[C@H]1C[C@@H](Nc2ccnc(NCC3CCCCC3)n2)[C@H](O)[C@@H]1O`: 500 to 10000 nM. With `NS(=O)(=O)OC[C@@H]1C[C@@H](Oc2cc(N[C@H]3CCCc4ccccc43)ncn2)C[C@@H]1O` the figure was at most 500 nM.

Consider `NS(=O)(=O)OC[C@@H]1C[C@@H](Nc2c(Cl)cnc3[nH]c(-c4cccc5ccccc45)nc23)C[C@@H]1O`, for which the IC50 is at most 500 nM.

`CC1(C)C[C@H](Nc2ncnc(N[C@@H]3C[C@@H](COS(N)(=O)=O)[C@@H](O)C3)n2)c2ccccc21`: the IC50 is at most 500 nM. As for `CN(C)c1ccccc1-c1nc2c(N[C@@H]3C[C@@H](COS(N)(=O)=O)[C@@H](O)C3)ncnc2[nH]1`, the IC50 was at most 500 nM.

Take `NS(=O)(=O)OC[C@H]1C[C@@H](NC(=O)c2ccccn2)[C@H](O)[C@@H]1O`: the 50% inhibitory concentration (IC50) is above 10000 nM. Take `CO[C@@H]1CC(C)(C)c2ccccc2[C@@H]1Nc1cc(O[C@@H]2C[C@@H](COS(N)(=O)=O)[C@@H](O)C2)ncn1`: the IC50 was at most 500 nM. `NS(=O)(=O)OC[C@@H]1C[C@@H](Nc2ncnc3[nH]c(-c4cccc5c4oc4ccccc45)nc23)C[C@@H]1O`: the IC50 was at most 500 nM. With `NS(=O)(=O)OC[C@H]1C[C@@H](Nc2ncnc3[nH]cnc23)[C@H](O)[C@@H]1O` the figure was at most 500 nM; with `NS(=O)(=O)OC[C@H]1C[C@@H](Nc2ncnc(N[C@@H]3CCc4ccccc43)n2)[C@H](O)[C@@H]1O`, at most 500 nM; with `NS(=O)(=O)OC[C@@H]1C[C@@H](Nc2ncnc3[nH]c(-c4cccc5c4CCCC5)nc23)C[C@@H]1O`, at most 500 nM.

In the case of `NS(=O)(=O)OC[C@@H]1C[C@@H](Oc2ncnc3[nH]c(-c4cccc5ccccc45)nc23)C[C@@H]1O`, the IC50 was at most 500 nM. Next, `C[C@H]1Cc2ccccc2[C@H]1Nc1cc(O[C@@H]2C[C@@H](COS(N)(=O)=O)[C@@H](O)C2)ncn1`: at most 500 nM.

Regarding `Cc1ccccc1-c1nc2c(N[C@@H]3C[C@@H](COS(N)(=O)=O)[C@@H](O)C3)ncnc2[nH]1`, the IC50 was at most 500 nM.
